{"source": "patent US6348220B1", "about": "“Phenethylisothiocyanate nutraceutical compositions and methods” (Rutgers, the State University of New Jersey, priority 1999, dated 2002)", "origin": "cited, not measured here", "tested_on": "oxidation of nitrosamines from tobacco", "conditions": "human smokers, PEITC from fresh watercress, urinary metabolites (Hecht et al., 1995)", "data": [{"smiles": "S=C=NCCc1ccccc1", "note": "[PEITC, phenethyl isothiocyanate]", "values": [{"measurement": "effect on oxidation of nitrosamines from tobacco", "value": "specifically inhibit the oxidation of nitrosamines from tobacco"}]}]}
